From patent publication US20250075278A1, “EPIGENTIC REGULATION AND CO-TARGETING APPROACHES OF PSMA IN PROSTRATE CANCER” (Fred Hutchinson Cancer Center, priority 2023, published 2025)
Entries after “also recorded” stand apart in the source; their conditions may differ.

Tests used:
[1] = system: DU145, LAPC4, and LuCaP 35CR CL; test: PSMA protein expression in cell line models treated with epigenetic modifiers (flow cytometry and fluorescence immunocytochemistry); format: cell-based; details: for PSMA expression after HDACi treatment: in vitro and in vivo
Procedure: Cell lines and in vitro experiments. […] All drugs were diluted in DMSO.
To this end, 3 cell line models (DU145, LAPC4, and LuCaP 35CR CL) were treated with the DNMTi decitabine and pan-HDACi (panobinostat, CUDC-907, vorinostat) and applied 2 orthogonal approaches (flow cytometry and fluorescence immunocytochemistry) and 2 separate monoclonal antibodies (3E6 and LNI-17) to measure PSMA protein expression.

LuCaP 35CR xenografts = test: PSMA IHC of LuCaP 35CR PDX tumors grown in treated mice; format: in vivo; details: LuCaP 35CR PDX in castrated CB17SCID mice, 75 mg/kg/day, 21 days, vs 30% Captisol control
Procedure: In vivo experiments. All surgical procedures were performed under isoflurane anesthesia. LuCaP 35CR tumors (1 mm3) were surgically implanted s.c. into castrated male CB17SCID mice (The Jackson Laboratory) (59). When tumors reached a volume between 150 mm3 and 200 mm3, mice were administered CUDC-907 (Curis Inc.), a combined pan-HDAC/PI3K inhibitor dissolved in 30% captisol (Thermo Fisher Scientific). Treated mice received 75 mg/kg/day for 5 days, followed by 2 days off treatment, repeated for a total of 21 days or until the diameter of the tumor reached 2 cm. The same volume of 30% captisol, in the same manner as described above, was used to treat the vehicle group. […]
IHC staining. […] Immunocomplexes were detected using PV poly-HRP anti-mouse IgG (Leica Microsystems, PV6114) with DAB as the chromogen. […] Immunocomplexes were detected using the Biotin XX Tyramide SuperBoost kit (Invitrogen, B40931) per manufacturer's protocol with DAB as the chromogen. […] Immunocomplexes were detected using Tyramide Signal Amplification system from Thermo Fisher Scientific. […] Membranous PSMA expression was scored in a blinded manner by 2 pathologists, whereby the optical density level (“0” for no brown color, “1” for faint and fine brown chromogen deposition, and “2” for prominent chromogen deposition) was multiplied by the percentage of cells at each staining level, resulting in a total score range of 0-200. […]

Structure (SMILES)	PSMA expression after HDACi treatment [1]	PSMA expression in tumors (IHC, PSMA-positive cells) (LuCaP 35CR xenografts)	PSMA re-expression (density plot, FIG. 5H) ([1]; 10 μM, cell line not stated)
O=C(CCCCCCC(=O)Nc1ccccc1)NO [vorinostat]	significant upregulation of PSMA expression		
COc1ccc(-c2nc(N3CCOCC3)c3sc(CN(C)c4ncc(C(=O)NO)cn4)cc3n2)cn1 [CUDC-907]	significant upregulation of PSMA expression	significantly increased PSMA expression; also recorded: enhanced PSMA expression	
O=C(CNc1cccc2c1C(=O)N(C1CCC(=O)NC1=O)C2=O)NCCCOc1ccc(NC(=O)c2ccc(CN(C(=O)c3ccc4c(c3)OCC(=O)N4)C3CC3)cc2)nc1 (stereo not shown) [MS159]			PSMA re-expression
